Reference: patent US20070244103A1, “Novel Compounds Having an Anti-Bacterial Activity” (Morphochem Aktiengesellschaft Fur Kombinatorische Chemie, priority 2004, published 2007)

Test: MIC of the examples against various organisms
Assay type: cell-based
Conditions: against at least two of the above organisms (12-strain panel)
Description: The MIC (μg/ml) of the examples against various organisms was determined: A. baumannii ATCC19606, E. cloacae ATCC23355, E. coli ATCC25922, K. pneumoniae ATCC27736, P. mirabilis ATCC29906, P. aeruginosa ATCC27853, S. maltophilia ATCC13637, S. aureus ATCC43300, S. epidermidis ATCC14990, S. haemolyticus ATCC29970, E. faecalis ATCC29212 and E. faecium ATC19434.

SMILES | MIC [µg/mL]
COc1ccc2ncc(Cl)c(C(O)CN3C4CCC3CC(NCc3ccc5nsnc5c3)C4)c2c1 (single isomer, unassigned) [Example 58, 2-{3-[(Benzo[1,2,5]thiadiazol-5-ylmethyl)-amino]-8-aza-bicyclo[3.2.1]oct-8-yl}-1-(3-chloro-6-methoxy-quinolin-4-yl)-ethanol] | ≤ 2
COc1ccc2ncc(Cl)c(C(O)CN3C4CCC3CC(NC/C=C/c3ccccc3)C4)c2c1 (single isomer, unassigned) [Example 63, 1-(3-Chloro-6-methoxy-quinolin-4-yl)-2-[3-((E)-3-phenyl-allylamino)-8-aza-bicyclo[3.2.1]oct-8-yl]-ethanol] | ≤ 2
COc1cnc2cccc(C(O)CN3C4CCC3CC(NCc3cc5c(cc3F)SCC(=O)N5)C4)c2n1 (stereo not drawn) [Example 84, 7-Fluoro-6-({8-[2-hydroxy-2-(3-methoxy-quinoxalin-5-yl)-ethyl]-8-aza-bicyclo[3.2.1]oct-3-ylamino}-methyl)-4H-benzo[1,4]thiazin-3-one] | ≤ 2
COc1cnc2cccc(C(O)CN3C4CCC3CC(NCc3ccc5c(n3)NC(=O)CS5)C4)c2n1 (stereo not drawn) [Example 79, 6-({8-[2-Hydroxy-2-(3-methoxy-quinoxalin-5-yl)-ethyl]-8-aza-bicyclo[3.2.1]oct-3-ylamino}-methyl)-4H-pyrido[3,2-b][1,4]thiazin-3-one] | ≤ 2
COc1ccc2nccc(C(O)CN3C4CCC3CC(NCc3ccc5c(c3)NC(=O)CO5)C4)c2n1 (single isomer, unassigned) [Example 8, 6-({8-[2-Hydroxy-2-(6-methoxy-[1,5]-naphthyridin-4-yl)-ethyl]-8-aza-bicyclo[3.2.1]oct-3-ylamino}-methyl)-4H-benzo[1,4]oxazin-3-one] | ≤ 2
COc1ccc2ncc(Cl)c(C(O)CN3C4CCC3CC(NCc3ccc5c(c3)NC(=O)CS5)C4)c2c1 (single isomer, unassigned) [Example 57, 6-({8-[2-(3-Chloro-6-methoxy-quinolin-4-yl)-2-hydroxy-ethyl]-8-aza-bicyclo[3.2.1]oct-3-ylamino}-methyl)-4H-benzo[1,4]thiazin-3-one] | ≤ 2
COc1ccc2nccc(C(O)CN3C4CCC3CC(NCc3ccc5nsnc5c3)C4)c2n1 (single isomer, unassigned) [Example 11, 2-{3-[(Benzo[1,2,5]thiadiazol-5-ylmethyl)-amino]-8-aza-bicyclo[3.2.1]oct-8-yl}-1-(6-methoxy-[1,5]-naphthyridin-4-yl)-ethanol] | ≤ 2
COc1ccc2ncc(Cl)c(C(O)CN3CCCC(CNCc4ccc5c(c4)NC(=O)CS5)C3)c2c1 (single isomer, unassigned) [Example 68, 6-[({1-[2-(3-Chloro-6-methoxy-quinolin-4-yl)-2-hydroxy-ethyl]-piperidin-3-ylmethyl}-amino)-methyl]-4H-benzo[1,4]thiazin-3-one] | ≤ 2
COc1cnc2cccc(C(O)CN3CCCC(CNCc4cc5c(cn4)OCCO5)C3)c2n1 (stereo not drawn) [Example 88, 2-(3-{[(2,3-Dihydro-[1,4]dioxino[2,3-c]pyridin-7-ylmethyl)-amino]-methyl}-piperidin-1-yl)-1-(3-methoxyquinoxalin-5-yl)-ethanol] | ≤ 2
COc1ccc2cccc(NC(=O)C3CCCC(CNCc4cc5c(cn4)OCCO5)C3)c2n1 (stereo not drawn) [Example 111, 3-{[(2,3-Dihydro-[1,4]dioxino[2,3-c]pyridin-7-ylmethyl)-amino]-methyl}-cyclohexanecarboxylic acid (2-methoxy-quinolin-8-yl)-amide] | ≤ 2
COc1cnc2cccc(C(O)CN3CCCC(CNCc4ccc5c(c4)NC(=O)CS5)C3)c2n1 (stereo not drawn) [Example 91, 6-[({1-[2-Hydroxy-2-(3-methoxy-quinoxalin-5-yl)-ethyl]-piperidin-3-ylmethyl}-amino)-methyl]-4H-benzo[1,4]thiazin-3-one] | ≤ 2
COc1ccc2cccc(NC(=O)C3CCCC(CNCc4ccc5c(n4)NC(=O)CS5)C3)c2n1 (stereo not drawn) [Example 108, 3-{[(3-Oxo-3,4-dihydro-2H-pyrido[3,2-b][1,4]thiazin-6-ylmethyl)-amino]-methyl}-cyclohexanecarboxylic acid (2-methoxy-quinolin-8-yl)-amide] | ≤ 2
COc1ccc2ncc(Cl)c(C(O)CN3CCCC(CNCc4ccc5nsnc5c4)C3)c2c1 (single isomer, unassigned) [Example 70, 2-(3-{[(Benzo[1,2,5]thiadiazol-5-ylmethyl)-amino]-methyl}-piperidin-1-yl)-1-(3-chloro-6-methoxy-quinolin-4-yl)-ethanol] | ≤ 2
COc1ccc2nccc(NC(=O)C3CCCC(CNCc4ccc5c(c4)NC(=O)CO5)C3)c2n1 (stereo not drawn) [Example 15, 3-{[(3-Oxo-3,4-dihydro-2H-benzo[1,4]oxazin-6-ylmethyl)-amino]-methyl}-cyclohexanecarboxylic acid (6-methoxy-[1,5]-naphthyridin-4-yl)-amide] | ≤ 2
COc1cnc2cccc(C(O)CN3CCCC(CNCc4ccc5nsnc5c4)C3)c2c1 (single isomer, unassigned) [Example 41, 2-(3-{[(Benzo[1,2,5]thiadiazol-5-ylmethyl)-amino]-methyl}-piperidin-1-yl)-1-(3-methoxy-quinolin-5-yl)-ethanol] | ≤ 2
COc1ccc2nccc(NC(=O)C3CCCC(CNC/C=C/c4ccccc4)C3)c2c1 (stereo not drawn) [Example 53, 3-[((E)-3-Phenyl-allylamino)-methyl]-cyclohexanecarboxylic acid (6-methoxy-quinolin-4-yl)-amide] | ≤ 2
COc1ccc2nccc(C(O)CN3CCOC(CNCc4ccc5c(c4)NC(=O)CS5)C3)c2n1 (stereo not drawn) [Example 32, 6-[({4-[2-Hydroxy-2-(6-methoxy-[1,5]naphthyridin-4-yl)-ethyl]-morpholin-2-ylmethyl}amino)-methyl]-4H-benzo[1,4]thiazin-3-one] | ≤ 2
COc1ccc2nccc(C(O)CN3CCOC(CNCc4ccc5c(c4)NC(=O)CO5)C3)c2n1 (stereo not drawn) [Example 34, 6-[({4-[2-Hydroxy-2-(6-methoxy-[1,5]naphthyridin-4-yl)-ethyl]-morpholin-2-ylmethyl}amino)-methyl]-4H-benzo[1,4]oxazin-3-one] | ≤ 2

Further lines, results first:

MIC [µg/mL] | SMILES
≤ 2 | COc1cnc2cccc(C(O)CN3CCCC(CNCc4cc5c(cn4)OCCO5)C3)c2c1 (single isomer, unassigned) [Example 43, 2-(3-{[(2,3-Dihydro-[1,4]dioxino[2,3-c]pyridin-7-ylmethyl)-amino]-methyl}-piperidin-1-yl)-1-(3-methoxy-quinolin-5-yl)-ethanol]
≤ 2 | COc1ccc2nccc(NC(=O)C3CCCC(CNCc4ccc5c(c4)OCCO5)C3)c2n1 (stereo not drawn) [Example 19, 3-{[(2,3-Dihydro-benzo[1,4]dioxin-6-ylmethyl)-amino]-methyl}-cyclohexanecarboxylic acid (6-methoxy-[1,5]-naphthyridin-4-yl)-amide]
≤ 2 | COc1cnc2cccc(C(O)CN3CCCC(CNCc4ccc5c(n4)NC(=O)CS5)C3)c2n1 (stereo not drawn) [Example 90, 6-[({1-[2-Hydroxy-2-(3-methoxy-quinoxalin-5-yl)-ethyl]-piperidin-3-ylmethyl}-amino)-methyl]-4H-pyrido[3,2-b][1,4]thiazin-3-one]
≤ 2 | COc1ccc2ncc(Cl)c(C(O)CN3CCOC(CNCc4ccc5c(c4)NC(=O)CS5)C3)c2c1 (single isomer, unassigned) [Example 76, 6-[({4-[2-(3-Chloro-6-methoxy-quinolin-4-yl)-2-hydroxy-ethyl]-morpholin-2-ylmethyl}-amino)-methyl]-4H-benzo[1,4]thiazin-3-one]
≤ 2 | COc1ccc2ncc(Cl)c(C(O)CN3CCOC(CNCc4ccc5nsnc5c4)C3)c2c1 (single isomer, unassigned) [Example 74, 2-(2-{[(Benzo[1,2,5]thiadiazol-5-ylmethyl)-amino]-methyl}-morpholin-4-yl)-1-(3-chloro-6-methoxy-quinolin-4-yl)-ethanol]
≤ 2 | COc1cnc2ccc(Cl)c(C(O)CN3CCCC(CNCc4cc5c(cn4)OCCO5)C3)c2n1 (stereo not drawn) [Example 97, 1-(6-Chloro-3-methoxy-quinoxalin-5-yl)-2-(3-{[(2,3-dihydro-[1,4]dioxino[2,3-c]-pyridin-7-ylmethyl)-amino]-methyl}-piperidin-1-yl)-ethanol]
≤ 2 | COc1cnc2cccc(NC(=O)C3CCCC(CNCc4cc5c(cn4)OCCO5)C3)c2n1 (stereo not drawn) [Example 107, 3-{[(2,3-Dihydro-[1,4]dioxino[2,3-c]pyridin-7-ylmethyl)-amino]-methyl}-cyclohexanecarboxylic acid (3-methoxy-quinoxalin-5-yl)-amide]
≤ 2 | COc1cnc2ccc(Cl)c(C(O)CN3CCCC(CNCc4ccc5c(c4)NC(=O)CS5)C3)c2n1 (stereo not drawn) [Example 96, 6-[({1-[2-(6-Chloro-3-methoxy-quinoxalin-5-yl)-2-hydroxy-ethyl]-piperidin-3-ylmethyl}-amino)-methyl]-4H-benzo[1,4]thiazin-3-one]
≤ 2 | COc1cnc2ccc(Cl)c(C(O)CN3CCCC(CNCc4ccc5c(c4)OCCO5)C3)c2n1 (stereo not drawn) [Example 95, 1-(6-Chloro-3-methoxy-quinoxalin-5-yl)-2-(3-{[(2,3-dihydro-benzo[1,4]dioxin-6-ylmethyl)-amino]-methyl}-piperidin-1-yl)-ethanol]
